Reference: patent US20060281791A1, “Methods of increasing proliferation of adult mammalian cardiomyocytes through p38 map kinase inhibition” (CHILDREN'S MEDICAL CENTER CORPORATION, priority 2005, published 2006)
Several values for one entry are separate records, joined by “and”; a condition that tells them apart may be missing. Equal values may be shown once.

Tested on: neonatal rat cardiomyocytes
Test: cDNA microarray analysis (Affymetrix Rat Expression Set 230), x-fold changes of clustered genes
Format: cell-based
Details: 72 h, experiments (1) and (2)
Description: Animal experiments were performed in accordance with guidelines of Children's Hospital, Boston and UCLA. Ventricular cardiomyocytes from fetal (E19), 2-day-old (P2) and adult (250-350 g) Wistar rats (Charles River) were isolated as described with minor modifications (Engel et al. 1999; Engel et al. 2003). After digestion of fetal or neonatal hearts (0.14 mg/ml collagenase II (Invitrogen), 0.55 mg/ml pancreatin (Sigma)) cells were cultured in DMEM/F12 (GIBCO) containing 3 mM Na-pyruvate, 0.2% BSA, 0.1 mM ascorbic acid (Sigma), 0.5% Insulin-Transferrin-Selenium (100×), penicillin (100 U/ml), streptomycin (100 μg/ml), and 2 mM L-glutamine (GIBCO). Adult cardiomyocytes were cultured for 1 day in standard medium (DMEM, 25 mM Hepes, 5 mM taurine, 5 mM creatine, 2 mM L-carnitine (Sigma), 20 U/ml insulin (GIBCO), 0.2% BSA, penicillin (100 U/ml), and streptomycin (100 μg/ml)). Cells were stimulated in culture medium without BSA containing 2 mM L-glutamine. Neonatal and adult cardiomyocytes were initially cultured for 48 h in the presence of 20 μM cytosine β-D-arabinofuranoside (araC, Sigma) and 5% horse serum before stimulation to prevent proliferation of non-myocytes. Adult cardiomyocytes were incubated another 3 days with araC during stimulation. Neonatal cardiomyocytes were stimulated every day with growth factors for BrdU and H3P analyses (FGF1 and NRG-1-1β at 50 ng/ml, IL-1β at 100 ng/ml, R&D Systems, all diluted in 0.1% BSA/PBS). SB203580 and LY294002 (Calbiochem) was added every day. Adult cardiomyocytes were stimulated with fresh medium and SB203580 every 3 days.
RNA of neonatal cardiomyocytes was prepared 72 h after stimulation using Trizol (Invitrogen). RT-PCR was performed following standard protocols (Supplemental Table S4). Affymetrix technology was applied using the Rat Expression Set 230.
To determine the effect of p38 inhibition on cardiomyocyte differentiation and proliferation, a specific inhibitor of p38α and p38β, SB203580, was used and evaluated using cDNA microarray analyses using neonatal rat cardiomyocytes. […] Expression changes of a subset of genes were validated by RT-PCR.
Stimulation of neonatal cardiomyocytes with FGF1 induces fetal gene expression. To determine if FGF1, in combination with p38 inhibition, can reverse differentiation and induce cell cycle re-entry, we repeated cDNA microarray analyses (Supplemental Table S1). […]

Substance: FGF1: growth factor FGF1 (R&D Systems)
- Actn1 expression, x-fold change: 1.9 x-fold
- CXC chemokine LIX expression, x-fold change: 0.4 x-fold
- Cdc42 effector protein expression, x-fold change: 0.8 x-fold
- Cfl1 expression, x-fold change: 0.6 x-fold
- Connexin 40 expression, x-fold change: 0.8 x-fold
- Edg2 expression, x-fold change: 0.4 x-fold
- Enigma expression, x-fold change: 2.3 x-fold
- Epha3 expression, x-fold change: 0.5 x-fold
- Epidermal growth factor-like protein, T16 precursor expression, x-fold change: 0.3 x-fold
- Fgf16 expression, x-fold change: 0.8 x-fold
- Figf expression, x-fold change: 0.3 x-fold
- Kruppel-like factor 4 expression, x-fold change: 1.1 x-fold
- Lgals5 expression, x-fold change: 2.9 x-fold
- Maf-2 expression, x-fold change: 0.5 x-fold
- Mtss1 expression, x-fold change: 0.5 x-fold
- Nr2f2/COUP-TFII expression, x-fold change: 0.8 x-fold
- Nudt4 expression, x-fold change: 0.8 x-fold
- Osteoglycin expression, x-fold change: 0.4 x-fold
- Osterix expression, x-fold change: 0.6 x-fold
- PTTG1 expression, x-fold change: 1.4 x-fold
- Protein tyrosine phosphatase, receptor type, D (Ptprd) expression, x-fold change: 0.5 x-fold
- RPTPK expression, x-fold change: 0.4 x-fold
- Rbp2 expression, x-fold change: 0.6 x-fold
- Rdc1 expression, x-fold change: 0.5 x-fold
- Rev-ErbA-beta expression, x-fold change: 0.7 x-fold
- RhoGAP expression, x-fold change: 0.8 x-fold
- Septin 6 expression, x-fold change: 1.9 x-fold
- Serine-threonine specific protein phosphatase, GL subunit expression, x-fold change: 0.7 x-fold
- Seta expression, x-fold change: 1.0 x-fold
- TRAF4 associated factor 1 expression, x-fold change: 1.9 x-fold
- Troponin I, slow isoform expression, x-fold change: 0.6 x-fold
- Vcam1 expression, x-fold change: 0.3 x-fold
- Wisp2 expression, x-fold change: 0.8 x-fold
- (BEM)-3 expression, x-fold change (listed as FGF): 1.4 x-fold and 1.6 x-fold
- AGTR1 expression, x-fold change (listed as FGF): 0.4 x-fold and 0.5 x-fold
- Acta1 expression, x-fold change (listed as FGF): 4.8 x-fold and 6.3 x-fold
- Actinin expression, x-fold change (listed as FGF): 1.8 x-fold and 1.5 x-fold
- Adrenergic, alpha 1B-, receptor expression, x-fold change (listed as FGF): 0.8 x-fold and 0.7 x-fold
- Adrenomedullin precursor expression, x-fold change (listed as FGF): 0.4 x-fold and 0.6 x-fold
- Agtr1a expression, x-fold change (listed as FGF): 0.6 x-fold and 0.4 x-fold
- Anillin expression, x-fold change (listed as FGF): 3.3 x-fold and 1.9 x-fold
- Ankyrin 2, neuronal expression, x-fold change (listed as FGF): 0.6 x-fold and 0.7 x-fold
- Ankyrin repeat domain-containing SOCS box protein 12 expression, x-fold change (listed as FGF): 0.5 x-fold and 0.6 x-fold
- Apoptosis protein MA-3 expression, x-fold change (listed as FGF): 0.8 x-fold and 0.7 x-fold
- Arrestin domain containing 3 expression, x-fold change (listed as FGF): 0.3 x-fold and 0.5 x-fold
- Aurora B expression, x-fold change (listed as FGF): 1.5 x-fold and 1.9 x-fold
- BMP2 expression, x-fold change (listed as FGF): 6.0 x-fold and 3.4 x-fold
- BMP6 precursor expression, x-fold change (listed as FGF): 1.4 x-fold and 1.7 x-fold
- BOC expression, x-fold change (listed as FGF): 0.5 x-fold and 0.6 x-fold
- Bcl2a1 expression, x-fold change (listed as FGF): 0.4 x-fold and 0.6 x-fold
- Bmp3 expression, x-fold change (listed as FGF): 0.5 x-fold and 0.6 x-fold
- Bub1 expression, x-fold change (listed as FGF): 1.4 x-fold and 1.2 x-fold
- CABC1 expression, x-fold change (listed as FGF): 0.6 x-fold and 0.5 x-fold
- CDKN3/KAP/CDI1 expression, x-fold change (listed as FGF): 1.7 x-fold and 2.0 x-fold
- CENP-E expression, x-fold change (listed as FGF): 1.3 x-fold and 1.7 x-fold
- CISH expression, x-fold change (listed as FGF): 0.4 x-fold and 0.5 x-fold
- CKS2 expression, x-fold change (listed as FGF): 1.7 x-fold and 1.4 x-fold
- CREB5 expression, x-fold change (listed as FGF): 1.3 x-fold and 1.8 x-fold
- CSRP1 expression, x-fold change (listed as FGF): 1.9 x-fold and 1.8 x-fold
- CXCL4 expression, x-fold change (listed as FGF): 0.7 x-fold and 0.6 x-fold
- Cacalmodulin-dependent protein kinase phosphatase expression, x-fold change (listed as FGF): 0.9 x-fold and 1.3 x-fold
- Cadherin 13 expression, x-fold change (listed as FGF): 1.5 x-fold and 1.9 x-fold
- Calponin 1 expression, x-fold change (listed as FGF): 6.4 x-fold and 4.9 x-fold
- Casein kinase I delta expression, x-fold change (listed as FGF): 1.3 x-fold and 0.9 x-fold
- Catenin, alpha-1 expression, x-fold change (listed as FGF): 1.6 x-fold and 1.5 x-fold
- Cdc2a expression, x-fold change (listed as FGF): 1.7 x-fold and 1.8 x-fold
- Cdc20 expression, x-fold change (listed as FGF): 1.9 x-fold and 1.7 x-fold
- Cdc25B expression, x-fold change (listed as FGF): 1.6 x-fold and 1.3 x-fold
- Cdca3 expression, x-fold change (listed as FGF): 1.3 x-fold and 1.4 x-fold
- Cish2 expression, x-fold change (listed as FGF): 0.6 x-fold and 0.8 x-fold
- Cish3 expression, x-fold change (listed as FGF): 0.8 x-fold and 0.9 x-fold
- Cish expression, x-fold change (listed as FGF): 0.4 x-fold and 0.5 x-fold
- Connexin 43 expression, x-fold change (listed as FGF): 0.9 x-fold and 0.8 x-fold
- Csrp3/MLP expression, x-fold change (listed as FGF): 2.7 x-fold and 4.2 x-fold
- Ctgf expression, x-fold change (listed as FGF): 1.9 x-fold and 1.6 x-fold
- Cxcl12 expression, x-fold change (listed as FGF): 0.5 x-fold and 0.3 x-fold
- Cyclin A2 expression, x-fold change (listed as FGF): 1.8 x-fold and 1.1 x-fold
- Cyclin B1 expression, x-fold change (listed as FGF): 1.2 x-fold and 1.0 x-fold
- Cyclin B expression, x-fold change (listed as FGF): 1.9 x-fold and 1.8 x-fold
- Cyclin D1 expression, x-fold change (listed as FGF): 4.2 x-fold and 3.3 x-fold
- DAPK1 expression, x-fold change (listed as FGF): 0.6 x-fold and 0.5 x-fold
- DUSP6 expression, x-fold change (listed as FGF): 2.8 x-fold and 4.4 x-fold
- Ddr2 expression, x-fold change (listed as FGF): 0.5 x-fold and 0.8 x-fold
- Desmin expression, x-fold change (listed as FGF): 2.2 x-fold and 1.8 x-fold
- Diaphanous homolog 3 expression, x-fold change (listed as FGF): 2.5 x-fold and 1.9 x-fold
- Dok-5 expression, x-fold change (listed as FGF): 2.7 x-fold and 2.6 x-fold
- Dri42 expression, x-fold change (listed as FGF): 0.5 x-fold and 0.3 x-fold
- ETV5/ERM/PEA3 expression, x-fold change (listed as FGF): 20.4 x-fold and 11.2 x-fold
- Ect2 expression, x-fold change (listed as FGF): 1.9 x-fold and 2.5 x-fold
- Egfl3 expression, x-fold change (listed as FGF): 0.4 x-fold and 0.5 x-fold
- Emr1 expression, x-fold change (listed as FGF): 0.6 x-fold and 0.4 x-fold
- EphA2 expression, x-fold change (listed as FGF): 2.2 x-fold and 1.7 x-fold
- Ephrin B3 expression, x-fold change (listed as FGF): 0.7 x-fold and 0.8 x-fold
- FCEG expression, x-fold change (listed as FGF): 0.7 x-fold and 0.5 x-fold
- FHL1 expression, x-fold change (listed as FGF): 7.3 x-fold and 5.1 x-fold
- FHOS2 expression, x-fold change (listed as FGF): 0.7 x-fold and 0.8 x-fold
- Fancd2 expression, x-fold change (listed as FGF): 0.7 x-fold and 1.1 x-fold
- Fbln5 expression, x-fold change (listed as FGF): 0.4 x-fold and 0.6 x-fold
- Fcgr2 expression, x-fold change (listed as FGF): 0.5 x-fold and 0.6 x-fold
- Fcgr3 expression, x-fold change (listed as FGF): 0.5 x-fold and 0.6 x-fold
- Flt4/VEGFR3 expression, x-fold change (listed as FGF): 1.8 x-fold and 2.5 x-fold
- Frizzled-related protein 2 expression, x-fold change (listed as FGF): 0.5 x-fold and 0.3 x-fold
- Fzd1 expression, x-fold change (listed as FGF): 0.7 x-fold and 0.8 x-fold
- G0S2-like protein expression, x-fold change (listed as FGF): 0.5 x-fold and 0.6 x-fold
- GADD45a expression, x-fold change (listed as FGF): 1.8 x-fold and 1.3 x-fold
- GADD45 gamma expression, x-fold change (listed as FGF): 3.0 x-fold and 2.9 x-fold
- GDF15 expression, x-fold change (listed as FGF): 1.6 x-fold and 2.6 x-fold
- GOA1B expression, x-fold change (listed as FGF): 2.9 x-fold and 3.0 x-fold
- Gab1 expression, x-fold change (listed as FGF): 0.6 x-fold and 0.7 x-fold
- Ghr expression, x-fold change (listed as FGF): 0.9 x-fold and 0.8 x-fold
- Glypican (GPC)-3 expression, x-fold change (listed as FGF): 0.4 x-fold and 0.5 x-fold
- Growth hormone receptor expression, x-fold change (listed as FGF): 0.7 x-fold and 0.8 x-fold
